Our source for the CC50, selectivity ratio and EC50 values is ChEMBL document CHEMBL1157868, “Synthesis and antiviral activity of an imidazo[1,2-a]pyrrolo[2,3-c]pyridine series against the bovine viral diarrhea virus” (Eur J Med Chem, 2010).

A short description of data set [1]: Cytotoxicity against MDBK cells. The format is cell-based, Bos taurus. Particulars: cattle.
The nature of data set [2]: Selectivity index, CC50 for MDBK cells to EC50 for Bovine viral diarrhea virus. It is filed as toxicity, cell-based. Particulars: cattle, read-out: Ratio CC50/EC50.
Data set [3] relates to Bovine viral diarrhea virus 1. Briefly: Antiviral activity against Bovine viral diarrhea virus infected in MDBK cells assessed as protection against virus-induced cytopathogenicity after 5 days. The format is functional, organism-based. Particulars: Bovine viral diarrhea virus isolates and strains, 120 h. For orientation: Protection from cytopathic effect is a common read-out in antiviral testing.

Regarding `COC(=O)c1cc2c(ccn3cc(C)nc23)n1C`, in data set [1], the cytotoxic concentration (CC50) (commonly the concentration at which the toxic effect on the cells reaches its halfway point) is above 100 µM. In addition, the selectivity ratio in data set [2] is above 60.6. The 50% effective concentration (EC50) (usually the concentration needed to bring the measured effect to its halfway point) in data set [3] was 1.7 µM.

In turn, `CCOC(=O)c1cc2c(ccn3cc(C(F)(F)F)nc23)[nH]1` had a cytotoxic concentration (CC50) in data set [1] above 100 µM. Besides, the selectivity ratio in data set [2] was above 7.8. Further, the concentration giving a half-maximal response (EC50) in data set [3] came to 12.8 µM.

For the compound `CCOC(=O)c1cc2c(ccn3cc(C=O)nc23)[nH]1`, in data set [1], the CC50 was above 100 µM. Further, in data set [2], the selectivity ratio is above 4.6. In addition, in data set [3], the EC50 came out at 21.8 µM.

Take `CCOC(=O)c1cc2c(ccn3ccnc23)[nH]1`: the CC50 in data set [1] was above 100 µM. The selectivity ratio in data set [2] was above 20. Further, the EC50 in data set [3] was 5 µM.

For `CCCCOC(=O)c1cc2c(ccn3cc(C)nc23)[nH]1`, it took 89.8 µM to reach half-maximal cytotoxicity in data set [1] (CC50). In data set [2], the selectivity ratio turned out to be 41.8. Also, the EC50 in data set [3] turned out to be 2.1 µM.

The compound `CCOC(=O)c1cc2c(ccn3c([N+](=O)[O-])c(C)nc23)[nH]1` registered a CC50 in data set [1] above 100 µM. For the same compound, the selectivity ratio in data set [2] is above 1.5. The EC50 in data set [3] was 64.8 µM.

In the case of `CCOC(=O)c1cc2c(ccn3cc(C(OCC)OCC)nc23)[nH]1`, the midpoint of cytotoxicity in data set [1], the CC50, lay at 99.2 µM. Besides, the selectivity ratio in data set [2] was determined as 46.6. In data set [3], the EC50 amounted to 2.1 µM.

As to `CCOC(=O)c1cc2c(ccn3cc(-c4cccc(OC)c4)nc23)[nH]1`, half-maximal cytotoxicity in data set [1] (CC50) was put at 31.1 µM. The selectivity ratio in data set [2] was 71. Also, the EC50 in data set [3] was 0.4 µM.

Regarding `Cc1cn2ccc3[nH]c(C(=O)O)cc3c2n1`, the half-maximal cytotoxic concentration (CC50) in data set [1] was above 100 µM. The selectivity ratio in data set [2] was above 19.6. For the same compound, the EC50 in data set [3] amounted to 5.1 µM.

As to `CCOC(=O)c1cc2c(ccn3cc(C)nc23)n1C`, the cytotoxic concentration (CC50) in data set [1] was above 100 µM. The selectivity ratio in data set [2] is above 17.9. For the same compound, in data set [3], the 50% effective concentration (EC50) was found to be 5.6 µM.

For `CCOC(=O)c1cc2c(ccn3cc(-c4ccccc4)nc23)[nH]1`, the CC50 in data set [1] was above 100 µM. The selectivity ratio in data set [2] is above 27.1. The concentration giving a half-maximal response (EC50) in data set [3] is 3.7 µM.

With `COC(=O)c1cc2c(ccn3cc(C)nc23)[nH]1`, the CC50 in data set [1] is above 100 µM. The selectivity ratio in data set [2] is above 87.2. Besides, in data set [3], the concentration giving a half-maximal response (EC50) was 1.1 µM.

As for `CCOC(=O)c1cc2c(ccn3cc(C)nc23)[nH]1`, the CC50 in data set [1] was above 100 µM. The selectivity ratio in data set [2] was above 47.6. In addition, the concentration giving a half-maximal response (EC50) in data set [3] was found to be 2.1 µM.

On to `CCOC(=O)c1cc2c(ccn3cc(C(C)(C)C)nc23)[nH]1`, for which, in data set [1], the CC50 is above 100 µM. In data set [2], the selectivity ratio was above 2. Moreover, the EC50 in data set [3] worked out at 50.3 µM.

`CCOC(=O)c1cc2c(ccn3c(Br)cnc23)[nH]1` came in with a CC50 in data set [1] above 100 µM. Also, the selectivity ratio in data set [2] was above 7.1. In addition, the EC50 in data set [3] is 14.1 µM.

On to `CCOC(=O)c1cc2c(ccn3cc(CCl)nc23)[nH]1`, for which, in data set [1], the CC50 was above 100 µM. In data set [2], the selectivity ratio is above 2.1. The EC50 in data set [3] amounted to 47.6 µM.

Turning to `CCOC(=O)c1cc2c(ccn3cc(CO)nc23)[nH]1`, in data set [1], the half-maximal cytotoxic concentration (CC50) was above 100 µM. For the same compound, in data set [2], the selectivity ratio is above 1.9. Further, in data set [3], the EC50 is 53.8 µM.

Turning to `Cc1cn2ccc3[nH]c(CO)cc3c2n1`, the CC50 in data set [1] was above 100 µM. Also, in data set [2], the selectivity ratio was above 2.3. In data set [3], the half-maximal effective concentration (EC50) turned out to be 43.9 µM.

`CCOC(=O)c1cc2c(ccn3cc(CN(C)C)nc23)[nH]1` showed a 50% cytotoxic concentration (CC50) in data set [1] above 100 µM. In addition, the selectivity ratio in data set [2] was above 2.2. Moreover, in data set [3], the EC50 stood at 46.5 µM.

Turning to `CCOC(=O)c1cc2c(ccn3cc(C(C)C)nc23)[nH]1`, the 50% cytotoxic concentration (CC50) in data set [1] was above 100 µM. In addition, the selectivity ratio in data set [2] was above 4.3. Besides, in data set [3], the concentration for a half-maximal effect (EC50) was determined as 23.1 µM.

Compound `CCOC(=O)c1cc2c(ccn3cc(Br)nc23)[nH]1` returned a CC50 in data set [1] above 100 µM. For the same compound, in data set [2], the selectivity ratio was above 7.6. The EC50 in data set [3] turned out to be 13.1 µM.

`CCOC(=O)c1cc2c(ccn3c(Br)c(C)nc23)[nH]1` registered a CC50 in data set [1] above 100 µM. The selectivity ratio in data set [2] is above 1.3. Besides, the EC50 in data set [3] came out at 78.9 µM.
